“And” between values parts separate entries of the source, which are not always exact repeats. Equal entries are not always repeated. “Also recorded” adds a separate entry of the source.
Assays:
Format in all cases: in vivo
[1] = system: beet armyworm (Spodoptera exigua); assay: Beet armyworm topical test
Description: Insecticidal Test for Beet Armyworm (Spodoptera exigua) in Topical Assays.
To prepare topical solutions, 0.5 mg of test compound was dissolved into 0.5 ML of a 90:10 acetone:water solvent. A volume of 1 or 2 μl of the test solutions was topically applied to each of early fourth-instar beet armyworm larvae. Six larvae (6 replications) were used for each treatment. This application rate was equivalent to 1 or 2 μg per larva. Treated larvae were individually placed in wells of 6-well plastic plates and fed an artificial diet. Observations were made at one, two and three days after treatment.

[2] = system: green peach aphid (Myzus persicae); assay: Insecticidal test for green peach aphid, foliar spray on infested cabbage seedlings; conditions: for No. of live aphid, average / No. of live aphid, plant 1 / No. of live aphid, plant 2 / No. of live aphid, plant 3 / No. of live aphid, plant 4: graded after three days; for % control: three days, population reduction versus untreated
Description: Insecticidal Test for Green Peach Aphid (Myzus persicae).
Cabbage seedlings grown in 3-inch pots, with 2-3 small (3-5 cm) true leaves, were used as test substrate. The seedlings were infested with green peach aphids (wingless adult and nymph) 2-3 days prior to chemical application. Four seedlings were used for each treatment. To prepare spray solutions, 0.5 mg of test compound was dissolved into 0.5 mL of a 90:10 acetone:water solvent. This 0.5 mL of chemical solution was added to 4.5 mL of water containing 0.025% Tween 20 surfactant to produce a 100 ppm spray solution. Lower concentrations were made by diluting the 100 ppm solution with water containing 0.025% Tween 20.
A hand-held Devilbiss sprayer was used for spraying a solution to both sides of cabbage leaves until runoff. Reference plants (solvent check) were sprayed with 0.025% Tween 20 containing 9% acetone. Treated plants were held in a holding room for three days at approximately 25° C. and 40% RH prior to grading. Evaluation was conducted by counting the number of live aphids per plant under a microscope. Results are given in Table 3 as percent control based on population reduction versus the untreated.

[3] = system: tobacco budworm (Heliothis virescens); assay: Tobacco budworm dietary test; conditions: for Symptom, 1 day / Symptom, 3 day: second-instar larvae
Description: (§1) Insecticidal Test for Tobacco Budworm (Heliothis virescens), Beet Armyworm (Spodoptera exigua) and Cabbage Looper (Trichoplusia ni) in Dietary Assays.
(§2) Dietary assays were conducted in 128-well plastic trays. To prepare a 1000 ppm stock solution, 0.5 mg of test compound was dissolved into 0.5 mL of a 90:10 acetone:water solvent. The test solutions of 125 ppm and lower concentrations were made by sequentially diluting the stock solution with a 90:10 acetone: water solvent. A volume of 50 μl of the test solutions was pipetted upon the surface of 1 mL of lepidopteran diet (Southland Multi-Species Lepidopteran Diet) in each well of 128-well plastic trays. The highest application rate using the 125 ppm solution was equivalent to 3.1 μg/cm^2. For beet armyworm and cabbage looper, four wells (4 replications) were used for each treatment on each insect species. For tobacco budworm, eight wells (8 replications) were used for each treatment. A second-instar tobacco budworm, two second-instar beet armyworm or two early third-instar cabbage looper larvae were placed upon the treated diet in each well once the solvent had been air-dried. Trays containing the treated diet and larvae were covered with self-adhesive transparent sheets and held in a growth chamber at 25° C., 50-55% RH, and 16 h light: 8 h dark Observation were conducted 1 and 3 days after treatment and infestation.

[4] = system: cabbage looper (Trichoplusia ni); assay: Cabbage looper dietary test; conditions: for Symptom, 1 day / Symptom, 3 day: early third-instar larvae
Description: as §1, §2

[5] = system: cotton aphid (Aphis gossypii); assay: Insecticidal test for cotton aphid, foliar spray on infested squash cotyledons; conditions: for % control: 3 days, population reduction versus untreated
Description: To prepare spray solutions, 0.5 mg of test compound was dissolved into 0.5 mL of a 90:10 acetone: water solvent. This 0.5 mL of chemical solution was added to 4.5 mL of water containing 0.025% Tween 20 surfactant to produce a 100 ppm spray solution. Lower concentrations were made by diluting the 100 ppm solution with water containing 0.025% Tween 20.
Squash cotyledons with a single cotyledon leaf were infested with cotton aphid (wingless adult and nymph) 16-20 hours prior to application of spray solution. The solution was sprayed with a hand-held Devilbiss sprayer on both sides of each infested squash cotyledon until runoff. Reference plants (solvent check) were sprayed with 0.025% Tween 20 containing 9% acetone. The plants were allowed to air dry and held for 3 days in a controlled room at 25° C. and 40% RH after which time the test was graded. Grading was by actual count using a dissecting microscope and comparison of test counts to the untreated check. Results are given in Table 2 as percent control based on population reduction versus the untreated.

[6] = system: beet armyworm (Spodoptera exigua); assay: Beet armyworm dietary test; conditions: for Symptom, 1 day / Symptom, 3 day: second-instar larvae
Description: as §1, §2

[7] = 1.95 PPM (0.049 ug/cm2) on diet
[8] = 4 PPM spray, graded after 3 days
[9] = 20 PPM spray, graded after 3 days
[10] = 100 PPM spray, graded after 3 days

## C/C=C1\NC(=O)[C@H]2CSSCC/C=C/[C@H](CC(=O)N[C@H](C(C)C)C(=O)N2)OC(=O)[C@H](C(C)C)NC1=O [compound of formula (I), FR901228]
[1]; 1 ug/larva topical, 1 day
  % Mortality, 1 day: 0%
[1]; 1 ug/larva topical
  % Mortality, 2 day: 17%
[1]; 1 ug/larva topical, 3 day
  % Mortality, 3 day: 67%
[1]; 2 ug/larva topical, 1 day
  % Mortality, 1 day: 0%
[1]; 2 ug/larva topical
  % Mortality, 2 day: 85%
[1]; 2 ug/larva topical, 3 day
  % Mortality, 3 day: 100%

## C/C=C1\NC(=O)C2CSSCC/C=C/C(CC(=O)NC(C(C)C)C(=O)N2)OC(=O)C(C(C)C)NC1=O (centres unmarked) [compound of formula (I), FR901228]
[1]; 1 ug/larva topical, early fourth-instar larvae, 1 day
  Symptom, 1 day: 2 dying w/duiresis, and 2 unable to right, and 2 small, 1 OK
[1]; 2 ug/larva topical, early fourth-instar larvae, 3 day
  Symptom, 3 day: all dead; also recorded: w/duiresis
[2]; 20 PPM spray
  No. of live aphid, average: 55
  No. of live aphid, plant 1: 47
  No. of live aphid, plant 2: 53
  No. of live aphid, plant 3: 87
  No. of live aphid, plant 4: 32
  % control: 35.8%
[2]; 100 PPM spray
  No. of live aphid, average: 24
  No. of live aphid, plant 1: 8
  No. of live aphid, plant 2: 31
  No. of live aphid, plant 3: 30
  No. of live aphid, plant 4: 26
  % control: 72.1%
[3]; 1 PPM (0.025 ug/cm2) on diet
  % Dead, 1 day: 0%
  % Dead, 3 day: 0%
  Symptom, 1 day: none
[3]; 5 PPM (0.13 ug/cm2) on diet
  % Dead, 1 day: 0%
  % Dead, 3 day: 0%
  Symptom, 1 day: 80% size of UTC
  Symptom, 3 day: 60% size of UTC
[3]; 25 PPM (0.63 ug/cm2) on diet
  % Dead, 1 day: 0%
  % Dead, 3 day: 0%
  Symptom, 1 day: 60% size of UTC
  Symptom, 3 day: 40% size of UTC
[3]; 125 PPM (3.1 ug/cm2) on diet
  % Dead, 1 day: 0%
  % Dead, 3 day: 0%
[4]; [7]
  % Dead, 1 day: 0%
  % Dead, 3 day: 0%
  Symptom, 1 day: none
  Symptom, 3 day: none
[4]; 7.8 PPM (0.195 ug/cm2) on diet
  % Dead, 1 day: 0%
  % Dead, 3 day: 0%
  Symptom, 1 day: none
  Symptom, 3 day: 60% size of UTC
[4]; 31.3 PPM (0.78 ug/cm2) on diet
  % Dead, 1 day: 0%
  % Dead, 3 day: 0%
  Symptom, 1 day: none
  Symptom, 3 day: 40% size of UTC
[4]; 125 PPM (3.1 ug/cm2) on diet
  % Dead, 1 day: 25%
  % Dead, 3 day: 50%
[5]; 4 PPM spray
  % control: 87%
[5]; [8]
  No. of live aphid, average: 27
  No. of live aphid, plant 1: 27
  No. of live aphid, plant 2: 40
  No. of live aphid, plant 3: 64
  No. of live aphid, plant 4: 83
[5]; 20 PPM spray
  % control: 95.2%
[5]; [9]
  No. of live aphid, average: 10
  No. of live aphid, plant 1: 16
  No. of live aphid, plant 2: 4
[5]; 100 PPM spray
  % control: 100%
[5]; [10]
  No. of live aphid, average: 0
  No. of live aphid, plant 1: 0
  No. of live aphid, plant 2: 0
[6]; [7]
  % Dead, 1 day: 0%
  % Dead, 3 day: 0%
  Symptom, 1 day: 90% size of UTC
  Symptom, 3 day: 30% size of UTC
[6]; 7.8 PPM (0.195 ug/cm2) on diet
  % Dead, 1 day: 0%
  % Dead, 3 day: 0%
  Symptom, 1 day: 70% size of UTC
  Symptom, 3 day: 15% size of UTC
[6]; 31.3 PPM (0.78 ug/cm2) on diet
  % Dead, 1 day: 0%
  % Dead, 3 day: 0%
  Symptom, 1 day: 50% size of UTC
  Symptom, 3 day: 10% size of UTC
[6]; 125 PPM (3.1 ug/cm2) on diet
  % Dead, 1 day: 0%
  % Dead, 3 day: 100%
  Symptom, 1 day: 30% size of UTC
  Symptom, 3 day: all dead

From patent US20050261174A1, “Insecticidal activity of a cyclic peptide” (priority 2004, published 2005)
